Experimental findings from ChEMBL document CHEMBL1142344, “Rapid assembly of diverse and potent allosteric Akt inhibitors” (Bioorg Med Chem Lett, 2008) are described below.

A short description of data set [1]: Half life in dog at 0.25 mg/kg, iv. In kind it is ADME, organism-based, Canis lupus familiaris. Details: dose 0.25 mg/kg, route intravenous. Particulars: in vivo.
The nature of data set [2]: Clearance in dog at 0.25 mg/kg, iv. It is filed as ADME, organism-based, Canis lupus familiaris. The arrangement: dose 0.25 mg/kg, route intravenous. Particulars: in vivo.
Data set [3] concerns the target T1, RAC-beta serine/threonine-protein kinase (Homo sapiens, UniProt P31751). In words: Inhibition of human recombinant Akt2.
The target of data set [4] is T2, RAC-alpha serine/threonine-protein kinase (Homo sapiens, UniProt P31749). The data set can be described thus: Inhibition of human recombinant Akt1.
T2 sequence (P31749 whole entry): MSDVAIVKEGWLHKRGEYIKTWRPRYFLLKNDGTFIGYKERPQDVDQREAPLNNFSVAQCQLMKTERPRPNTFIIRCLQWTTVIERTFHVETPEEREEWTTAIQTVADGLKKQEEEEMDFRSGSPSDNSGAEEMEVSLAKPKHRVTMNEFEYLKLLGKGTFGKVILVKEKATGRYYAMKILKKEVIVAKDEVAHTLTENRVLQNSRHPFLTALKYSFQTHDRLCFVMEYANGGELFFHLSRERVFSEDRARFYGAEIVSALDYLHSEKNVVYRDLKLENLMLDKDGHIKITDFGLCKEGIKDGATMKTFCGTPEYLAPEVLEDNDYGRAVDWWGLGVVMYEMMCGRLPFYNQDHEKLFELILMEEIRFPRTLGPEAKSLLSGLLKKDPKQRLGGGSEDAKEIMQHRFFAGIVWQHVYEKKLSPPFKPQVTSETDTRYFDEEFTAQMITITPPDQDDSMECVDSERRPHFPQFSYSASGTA
Data set [5] has as its target T1, RAC-beta serine/threonine-protein kinase. In words: Inhibition of Akt2 phosphorylation in human C33a cells. It is filed as cell-based.
For data set [6], the target named is T2, RAC-alpha serine/threonine-protein kinase. In words: Inhibition of Akt1 phosphorylation in human C33a cells. It is filed as cell-based.

As usually defined, the half-life is how long it takes for the measured level to halve. The low end stands for fast loss, the high end for slow loss. One may read the clearance as the volume of plasma or blood freed of the substance per unit of time. What is called IC50 is the concentration at which inhibition is half-maximal.

T1 sequence (P31751 whole entry): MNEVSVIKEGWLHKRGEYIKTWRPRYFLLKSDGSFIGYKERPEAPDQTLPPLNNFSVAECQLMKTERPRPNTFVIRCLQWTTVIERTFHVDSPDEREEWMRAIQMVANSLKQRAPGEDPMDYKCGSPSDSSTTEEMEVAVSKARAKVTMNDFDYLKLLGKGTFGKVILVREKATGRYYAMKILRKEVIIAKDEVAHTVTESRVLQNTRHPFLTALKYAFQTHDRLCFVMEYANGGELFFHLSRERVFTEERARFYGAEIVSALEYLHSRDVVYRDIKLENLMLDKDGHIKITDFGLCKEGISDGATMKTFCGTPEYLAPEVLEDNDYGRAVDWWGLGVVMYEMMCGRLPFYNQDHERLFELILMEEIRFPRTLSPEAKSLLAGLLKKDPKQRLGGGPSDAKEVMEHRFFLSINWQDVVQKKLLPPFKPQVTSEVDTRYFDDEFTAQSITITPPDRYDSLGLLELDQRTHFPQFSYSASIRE

For `Nc1ncnc2nc(-c3ccc(CN4CCC(c5nc6ccc(F)cc6[nH]5)CC4)cc3)c(-c3ccccc3)cc12`, in data set [1], the half-life was 2.8 h. In data set [2], this compound displayed a clearance of 5.6 mL/min/kg.

In the case of `Nc1nn(CCc2c[nH]cn2)c2nc(-c3ccc(CN4CCC(n5c(=O)[nH]c6ccccc65)CC4)cc3)c(-c3ccccc3)cc12`, the IC50 was 839 nM in data set [3] and 21 nM in data set [4].

Turning to `Nc1ncnc2nc(-c3ccc(CN4CCC(n5cnc6c(N)ncnc65)CC4)cc3)c(-c3ccccc3)cc12`, the figures for the IC50 in data set [3] and in data set [4] were 696 nM and 129 nM, respectively.

Regarding `Nc1nn(CCO)c2nc(-c3ccc(CN4CCC(n5c(=O)[nH]c6ccccc65)CC4)cc3)c(-c3ccccc3)cc12`, the IC50 in data set [3] is 1230 nM; in data set [4] it was 131 nM.

With `CNc1nc(-c2ccc(CN3CCC(n4c(=O)[nH]c5ccccc54)CC3)cc2)c(-c2ccccc2)cc1C#N`, the IC50 was 8140 nM in data set [3] and 2250 nM in data set [4].

For the compound `Nc1ncnc2nc(-c3ccc(CN4CCC(c5cc(-c6ccncc6)[nH]n5)CC4)cc3)c(-c3ccccc3)cc12`, the IC50 in data set [5] was determined as 1200 nM; in data set [3], 85 nM; in data set [6], 463 nM; in data set [4] it was 21 nM.

In the case of `CN(C)c1nc(-c2ccc(CN3CCC(n4c(=O)[nH]c5ccccc54)CC3)cc2)c(-c2ccccc2)cc1C#N`, the values for the IC50 in data set [3] and in data set [4] were 15400 nM and 8460 nM, respectively.

`Nc1n[nH]c2nc(-c3ccc(CN4CCC(n5c(=O)[nH]c6ccccc65)CC4)cc3)c(-c3ccccc3)cc12`: the IC50 in data set [3] amounted to 7360 nM; in data set [4], 86 nM.

For `N#Cc1cc(-c2ccccc2)c(-c2ccc(CN3CCC(n4c(=O)[nH]c5ccccc54)CC3)cc2)nc1Cl`, the figures for the IC50 in data set [3] and in data set [4] were 7360 nM and 253 nM, respectively.

Regarding `Nc1nc(O)nc2nc(-c3ccc(CN4CCC(n5c(=O)[nH]c6ccccc65)CC4)cc3)c(-c3ccccc3)cc12`, the IC50 in data set [3] worked out at 577 nM; in data set [4], 244 nM.

For `Cn1nc(N)c2cc(-c3ccccc3)c(-c3ccc(CN4CCC(n5c(=O)[nH]c6ccccc65)CC4)cc3)nc21`, the IC50 in data set [3] worked out at 556 nM; in data set [4], 121 nM.

`Nc1nc(N)c2cc(-c3ccccc3)c(-c3ccc(CN4CCC(n5c(=O)[nH]c6ccccc65)CC4)cc3)nc2n1`: the results for the IC50 in data set [3] and in data set [4] were 274 nM and 107 nM, respectively.

On to `Nc1ncnc2nc(-c3ccc(CN4CCC(n5c(=O)[nH]c6ccccc65)CC4)cc3)c(-c3ccccc3)cc12`, for which the IC50 in data set [5] was determined as 5080 nM; in data set [3] it was 259 nM; in data set [6] it was 1830 nM; in data set [4], 81 nM.

As to `COc1nc(-c2ccc(CN3CCC(n4c(=O)[nH]c5ccccc54)CC3)cc2)c(-c2ccccc2)cc1C#N`, the IC50 in data set [3] came to 37700 nM; in data set [4] it was 5550 nM.

`Cc1nc2ccccc2n1C1CCN(Cc2ccc(-c3nc4ncnc(N)c4cc3-c3ccccc3)cc2)CC1`: the IC50 in data set [5] is 344 nM; in data set [3] it was 281 nM; in data set [6], 221 nM; in data set [4], 69 nM.

`N#Cc1cc(-c2ccccc2)c(-c2ccc(CN3CCC(n4c(=O)[nH]c5ccccc54)CC3)cc2)nc1N`: the IC50 in data set [3] amounted to 2060 nM; in data set [4], 495 nM.
